How the values were obtained:
[1] = test system: mechanical hyperalgesia induced by CFA in the rat; test: Mechanical hyperalgesia induced by CFA in the rat; type: in vivo; settings: male CD rats, dose 10^-5 mol/kg, test 23 hours after injection of CFA, vehicle 121 ± 4.1, normal animals 155±2.1 g
Source text: 1. Mechanical Hyperalgesia Induced by CFA in the Rat
Male CD rats weighing 150-200 g on arrival were used. Using an analgesiometer, rats were selected having a response threshold to a mechanical nociceptive stimulus of from 150 to 180 g. By applying a gradual increase in pressure on the dorsal zone of the rat's left hind foot, the instrument makes it possible to record the nocifensive response, expressed in grams, corresponding to the moment when the animal retracts its foot [Randall L O and Semite J J. A method for the measurement of analgesic activity on inflamed tissue. Arch. Int. Pharmacodyn. Ther. 1957; 111: 409-419].
Hyperalgesia was induced by unilateral injection of 150 μl of Complete Freund's Adjuvant (CFA) in the plantar surface of the animal's left hind foot [Andrew D, Greenspan J D. Mechanical and heat sensitization of cutaneous nociceptors after peripheral inflammation in the rat. J Neurophysiol 1999; 82(5): 2649-2656; Hargreaves K, Dubner R, Brown R, Flores C, Joris J. A new and sensitive method for measuring thermal nociception in cutaneous hyperalgesia. Pain 1988; 32: 77-88].
The compounds under examination were tested (dose 10^−5 mol/kg) by carrying out the test 23 hours after injection of CFA.
At 1 h following the treatment, the pain threshold measured in control animals was compared with that measured in animals treated with the product under examination. The control animals were treated with the same vehicle (water) used for administering the products under examination.

[2] = test system: mechanical hyperalgesia in rats with diabetes induced by streptozotocin; test: Mechanical hyperalgesia in rats with diabetes induced by streptozotocin; type: in vivo, rat; settings: male CD rats, streptozotocin 80 mg/kg i.p. diabetic neuropathy, dose 10^-5 mol/kg, vehicle 112 ± 4.0, normal animals 240±8.7 g
Procedure: The pain threshold of normal animals of equal weight/age=155±2.1 g 2. Mechanical Hyperalgesia in Rats with Diabetes Induced by Streptozotocin
Male CD rats weighing 240-300 g on arrival were used.
Diabetic syndrome was induced by a single intraperitoneal (i.p.) injection of 80 mg/kg of streptozotocin dissolved in sterile physiological solution [Courteix C, Eschalier A, Lavarenne J. Streptozotocin-induced diabetic rats: behavioural evidence for a model of chronic pain. Pain, 1993; 53: 81-88; Bannon A W, Decker M W, Kim Dj, Campbell J E, Arneric S P. ABT-594, a novel cholinergic channel modulator, is efficacious in nerve ligation and diabetic neuropathy models of neuropathic pain. Brain Res. 1998; 801: 158-63].
After at least three weeks following the injection of streptozotocin, rats were selected having a level of glycaemia ≧300 mg/dl and having a response threshold to a mechanical nociceptive stimulus ≦120 g. The glycaemia levels were measured by means of a reflectometer using reactive strips impregnated with glucose oxidase. The pain threshold was measured using an analgesiometer. By applying a gradual increase in pressure on the dorsal zone of the rat's left hind foot, the instrument makes it possible to record the nocifensive response, expressed in grams, corresponding to the moment when the animal retracts its foot.
At 2 h following the treatment, the pain threshold measured in control animals was compared with that measured in animals treated with the product under examination (dose 10^−5 mol/kg).
The control animals were treated with the same vehicle (water) used for administering the products under examination.

melting point	SMILES	Pain threshold (g) 1 h after treatment [1] [g]	Pain threshold (g) 2 h after treatment [2] [g]
235 to 237 °C	Cl.Cn1nc(NC(=O)C2CCN(CCc3ccccc3)CC2)c2ccccc21 [AF3R334, N-(1-methyl-1H-indazol-3-yl)-1-(2-phenylethyl)piperidine-4-carboxamide hydrochloride]	170 ± 11.0	184 ± 10.5
	Cc1ccc2c(c1)c(C(=O)NCC1CCN(CCc3ccc(O)cc3)CC1)nn2C(C)C.Cl [AF3R296, N((1-(2-(4-hydroxyphenyl)ethyl)-4-piperidinyl)methyl)-5-methyl-1-(1-methylethyl)-1H-indazole-3-carboxamide hydrochloride]	151 ± 10.7	154 ± 8.7
137 to 139 °C (dec.)	COc1ccc(CCN2CCC(C(=O)Nc3nn(C)c4ccccc34)CC2)cc1.Cl [AF3R328, N-(1-methyl-1H-indazol-3-yl)-1-(2-(4-methoxyphenyl)ethyl)piperidine-4-carboxamide hydrochloride]	150 ± 8.7	158 ± 6.2
	Cl.Cn1nc(NC(=O)C2CCN(CCc3ccc(O)cc3)CC2)c2ccccc21 [AF3R330]	161 ± 10.5	171 ± 9.6
	Cl.Cl.Nc1ccc(CCN2CCC(CNC(=O)c3n[nH]c4ccccc34)CC2)cc1 [AF3R302, N((1-(2-(4-aminophenyl)ethyl)-4-piperidinyl)methyl)-1H-indazole-3-carboxamide dihydrochloride]	160 ± 10.2	164 ± 10.2
	CC(C)n1nc(C(=O)NCC2CCN(CCc3ccc(N)cc3)CC2)c2ccccc21.Cl.Cl [AF3R294, N((1-(2-(4-aminophenyl)ethyl)-4-piperidinyl)methyl)-1-(1-methylethyl)-1H-indazole-3-carboxamide dihydrochloride]	194 ± 22.4	198 ± 18.6
	Cl.O=C(NCC1CCN(CCc2ccc([N+](=O)[O-])cc2)CC1)c1n[nH]c2ccccc12 [AF3R298, N((1-(2-(4-nitrophenyl)ethyl)-4-piperidinyl)methyl)-1H-indazole-3-carboxamide hydrochloride]	174 ± 9.8	170 ± 10.2
	CC(C)n1nc(C(=O)NCC2CCN(CCc3ccc([N+](=O)[O-])cc3)CC2)c2ccccc21.O=C(O)C(=O)O [AF3R306, N((1-(2-(4-nitrophenyl)ethyl)-4-piperidinyl)methyl)-1-(1-methylethyl)-1H-indazole-3-carboxamide oxalate]	186 ± 11.0	184 ± 13.8

Reference: US8415476B2, “Indazole having analgesic activity” (Aziende Chimiche Riunite Angelini Francesco A.C.R.A.F. …, priority 2003, dated 2013)
